Laboratory results reported in ChEMBL document CHEMBL4033756, “Identification of Better Pharmacokinetic Benzothiazinone Derivatives as New Antitubercular Agents” (ACS Med Chem Lett, 2017).
≈ marks a conversion by molar mass, not a printed value.

Assays:
[1] = Cytotoxicity against African green monkey Vero cells assessed as cell viability after 72 hrs by MTT assay; format: cell-based; conditions: chlorocebus sabaeus
[2] = Elimination half life in ICR mouse at 50 mg/kg, po by HPLC analysis; format: ADME, organism-based; conditions: in vivo, read-out: beta t1/2 (converted)
[3] = Aqueous solubility of the compound at pH 2 after 12 hrs by HPLC-UV method; format: physicochemical
[4] = Tmax in ICR mouse at 50 mg/kg, po by HPLC analysis; format: ADME, organism-based; conditions: in vivo
[5] = tested on: Mycobacterium tuberculosis; test: Antitubercular activity against Mycobacterium tuberculosis H37Rv after 7 days by microplate alamar blue assay; format: functional; conditions: 168 h
[6] = MRT in ICR mouse at 50 mg/kg, po by HPLC analysis; format: ADME, organism-based; conditions: in vivo
[7] = AUC (0 to infinity) in ICR mouse at 50 mg/kg, po by HPLC analysis; format: ADME, organism-based; set-up: dose 50 mg/kg, time infinity, route oral; conditions: in vivo
[8] = Cmax in ICR mouse at 50 mg/kg, po by HPLC analysis; format: ADME, organism-based; set-up: dose 50 mg/kg, route oral; conditions: in vivo
Mus musculus = test: Acute toxicity in Kunming mouse assessed as mortality at 500 mg/kg, po measured during first 4 hours and then each hour for next 24 hrs and at 8 hourly intervals for following 7 days post dose; format: organism-based; conditions: in vivo

| SMILES | CC50 at 72 h [1] [µM] | solubility at 12 h [3] [µg/mL] | MIC90 [5] [µM] | also measured |
| --- | --- | --- | --- | --- |
| O=c1nc(N2CCC3(CCN(Cc4ccc(F)cc4)C3)CC2)sc2c([N+](=O)[O-])cc(C(F)(F)F)cc12 | 811 | 1.12 (≈ 2.14 µM) | < 0.035 | half-life [2]: 3.11 h; Tmax [4]: 1.08 h; MRT [6]: 4 h; AUC(0-inf) [7]: 6020 ng·h/mL; Cmax [8]: 1230 ng/mL |
| CC(C)(C)OC(=O)N1CC2(CCN(c3nc(=O)c4cc(C(F)(F)F)cc([N+](=O)[O-])c4s3)CC2)C1 |  |  | 1.92 (≈ 0.963 µg/mL) |  |
| CCOC(=O)CN1CC2(CCN(c3nc(=O)c4cc(C(F)(F)F)cc([N+](=O)[O-])c4s3)CC2)C1 |  |  | 0.444 (≈ 0.216 µg/mL) |  |
| O=C(CN1CCC2(CC1)CCN(c1nc(=O)c3cc(C(F)(F)F)cc([N+](=O)[O-])c3s1)CC2)NCc1ccccc1 |  |  | 6.42 (≈ 3.69 µg/mL) |  |
| CCOC(=O)CN1CCC2(CC1)CCN(c1nc(=O)c3cc(C(F)(F)F)cc([N+](=O)[O-])c3s1)CC2 |  |  | 0.542 (≈ 0.279 µg/mL) |  |
| O=c1nc(N2CCC3(CCN(Cc4cccc(F)c4)CC3)CC2)sc2c([N+](=O)[O-])cc(C(F)(F)F)cc12 | 1400 | 1.13 (≈ 2.11 µM) | 0.054 (≈ 0.029 µg/mL) | half-life [2]: 3.53 h; Tmax [4]: 0.67 h; MRT [6]: 4.83 h; AUC(0-inf) [7]: 4870 ng·h/mL; Activity (Mus musculus): Non-Toxic; Cmax [8]: 901 ng/mL |
| COc1ccccc1CN1CCC2(CCN(c3nc(=O)c4cc(C(F)(F)F)cc([N+](=O)[O-])c4s3)CC2)C1 |  |  | 1.68 (≈ 0.896 µg/mL) |  |
| CCN(CC)C(=O)CN1CCC2(CC1)CCN(c1nc(=O)c3cc(C(F)(F)F)cc([N+](=O)[O-])c3s1)CC2 |  |  | 6.32 (≈ 3.42 µg/mL) |  |
| O=C(CN1CCC2(CC1)CCN(c1nc(=O)c3cc(C(F)(F)F)cc([N+](=O)[O-])c3s1)CC2)OCc1ccccc1 |  |  | 0.352 (≈ 0.203 µg/mL) |  |
| O=c1nc(N2CCC3(CCN(Cc4ccc(Br)cc4)CC3)CC2)sc2c([N+](=O)[O-])cc(C(F)(F)F)cc12 | 1680 | 1.17 (≈ 1.96 µM) | 0.057 (≈ 0.0341 µg/mL) | half-life [2]: 10.7 h; Tmax [4]: 1 h; MRT [6]: 15.9 h; AUC(0-inf) [7]: 24600 ng·h/mL; Activity (Mus musculus): Non-Toxic; Cmax [8]: 1680 ng/mL |
| COc1ccc(CN2CCC3(CCN(c4nc(=O)c5cc(C(F)(F)F)cc([N+](=O)[O-])c5s4)CC3)C2)cc1 | 86.2 | 1.4 (≈ 2.62 µM) | 0.112 (≈ 0.0599 µg/mL) |  |
| O=c1nc(N2CCC3(CCN(CC4CCCCC4)C3)CC2)sc2c([N+](=O)[O-])cc(C(F)(F)F)cc12 |  |  | 0.22 (≈ 0.112 µg/mL) |  |
| CC(C)(C)OC(=O)N1CCC2(CCN(c3nc(=O)c4cc(C(F)(F)F)cc([N+](=O)[O-])c4s3)CC2)C1 |  |  | 3.26 (≈ 1.68 µg/mL) |  |
| COc1ccc(CN2CCC3(CC2)CCN(c2nc(=O)c4cc(C(F)(F)F)cc([N+](=O)[O-])c4s2)CC3)cc1 |  |  | 1 (≈ 0.551 µg/mL) |  |
| O=c1nc(N2CCC3(CCN(Cc4cc(F)cc(F)c4)CC3)CC2)sc2c([N+](=O)[O-])cc(C(F)(F)F)cc12 | 1170 | 0.67 (≈ 1.21 µM) | < 0.035 | half-life [2]: 4.68 h; Tmax [4]: 0.5 h; MRT [6]: 5.8 h; AUC(0-inf) [7]: 2600 ng·h/mL; Activity (Mus musculus): Non-Toxic; Cmax [8]: 426 ng/mL |
| CC(C)(C)OC(=O)N1CCC2(CC1)CCN(c1nc(=O)c3cc(C(F)(F)F)cc([N+](=O)[O-])c3s1)CC2 |  |  | 0.219 (≈ 0.116 µg/mL) |  |
| CN1CCC2(CC1)CCN(c1nc(=O)c3cc(C(F)(F)F)cc([N+](=O)[O-])c3s1)CC2 |  |  | 33.5 (≈ 14.8 µg/mL) |  |
| O=c1nc(N2CCC3(CCN(CC4CCCCC4)CC3)CC2)sc2c([N+](=O)[O-])cc(C(F)(F)F)cc12 |  |  | 0.944 (≈ 0.495 µg/mL) |  |
| O=c1nc(N2CCC3(CCN(Cc4ccc(C(F)(F)F)cc4)CC3)CC2)sc2c([N+](=O)[O-])cc(C(F)(F)F)cc12 | 145 | 1.24 (≈ 2.11 µM) | < 0.035 | half-life [2]: 3.59 h; Tmax [4]: 1.33 h; MRT [6]: 6.07 h; AUC(0-inf) [7]: 28700 ng·h/mL; Activity (Mus musculus): Non-Toxic; Cmax [8]: 2700 ng/mL |
| COc1ccc(CN2CC3(CCN(c4nc(=O)c5cc(C(F)(F)F)cc([N+](=O)[O-])c5s4)CC3)C2)cc1 | 78.9 | 1.2 (≈ 2.31 µM) | 0.113 (≈ 0.0588 µg/mL) |  |
| COc1ccc(C(=O)N2CCC3(CC2)CCN(c2nc(=O)c4cc(C(F)(F)F)cc([N+](=O)[O-])c4s2)CC3)cc1 |  |  | 26.6 (≈ 15 µg/mL) |  |
| O=c1nc(N2CCC3(CCN(Cc4ccccc4)C3)CC2)sc2c([N+](=O)[O-])cc(C(F)(F)F)cc12 | 289 | 1.56 (≈ 3.09 µM) | 0.06 (≈ 0.0303 µg/mL) |  |
| O=c1nc(N2CCC3(CCN(Cc4ccccc4)CC3)CC2)sc2c([N+](=O)[O-])cc(C(F)(F)F)cc12 |  |  | 0.847 (≈ 0.439 µg/mL) |  |
| O=c1nc(N2CCC3(CCN(Cc4ccc(F)cc4)CC3)CC2)sc2c([N+](=O)[O-])cc(C(F)(F)F)cc12 |  |  | 0.21 (≈ 0.113 µg/mL) |  |
| O=c1nc(N2CCC3(CC2)CN(CC2CCCCC2)C3)sc2c([N+](=O)[O-])cc(C(F)(F)F)cc12 |  |  | 0.468 (≈ 0.232 µg/mL) |  |
| COc1cc(CN2CCC3(CC2)CCN(c2nc(=O)c4cc(C(F)(F)F)cc([N+](=O)[O-])c4s2)CC3)cc(OC)c1 |  |  | 0.825 (≈ 0.477 µg/mL) |  |
| CCOC(=O)CN1CCC2(CCN(c3nc(=O)c4cc(C(F)(F)F)cc([N+](=O)[O-])c4s3)CC2)C1 | 266 | 2.04 (≈ 4.08 µM) | 0.062 (≈ 0.031 µg/mL) | half-life [2]: 3.46 h; Tmax [4]: 0.67 h; MRT [6]: 5.2 h; AUC(0-inf) [7]: 41.8 ng·h/mL; Activity (Mus musculus): Non-Toxic; Cmax [8]: 17.6 ng/mL |
| NNC(=O)c1ccncc1 [ISONIAZID] |  |  | 0.284 (≈ 0.0389 µg/mL) |  |
| O=c1nc(N2CCN(CC3CCCCC3)CC2)sc2c([N+](=O)[O-])cc(C(F)(F)F)cc12 [MACOZINONE] | 1400 | 0.9 (≈ 1.97 µM) | < 0.035 | half-life [2]: 2.87 h; Tmax [4]: 0.83 h; MRT [6]: 3.73 h; AUC(0-inf) [7]: 5480 ng·h/mL; Cmax [8]: 1300 ng/mL |
| CO[C@H]1/C=C/O[C@@]2(C)Oc3c(C)c(O)c4c(O)c(c(/C=N/N5CCN(C)CC5)c(O)c4c3C2=O)NC(=O)/C(C)=C\C=C\[C@H](C)[C@H](O)[C@@H](C)[C@@H](O)[C@@H](C)[C@H](OC(C)=O)[C@@H]1C [RIFAMPIN] |  |  | 0.092 (≈ 0.0757 µg/mL) |  |
